Entries after “also recorded” stand apart in the source; their conditions may differ.
Experiments:
Gα0 = Gα0 (Homo sapiens (Human), UniProt P09471); test: Intrinsic GTP hydrolysis by Gαo (single turnover); type: biochemical
Procedure: (§1) Single Turnover GTPase Measurements:
(§2) Compounds were tested for the ability to inhibit the RGS4 and RGS8-stimulated increase in GTP hydrolysis by Gα0 as described previously (Roman, D. L., et al., Mol Pharmacol, 2007. 71(1): p. 169-75; Roof, R. A., et al., Chem Biol Drug Des, 2006. 67(4): p. 266-74).
(§3) Single-turnover GAP assay: Experiments were performed as previously described using purified his6-tagged Gαo (Blazer et al., Biochemistry 50, 3181-3192; Roof et al., (2008) Chem Biol Drug Des 72, 111-119).

M3 muscarinic receptor = test: Carbachol-induced Ca2+ response, M3 cells without RGS4 dependence; type: cell-based; settings: for effect on carbachol-induced Ca2+ response (RGS-independent): 10 μM (FIG. 20) or as stated
Procedure: (§4) Calcium Mobilization Experiments:
(§5) A stable cell line was developed based upon the HEK-293 Flp-In TREx cell line (Invitrogen, Carlsbad, Calif.) that stably express the muscarinic M3 receptor and have human RGS4 expression under doxycycline control. Cells were maintained in DMEM supplemented with 10% fetal bovine serum and Penicillin (100 units/ml)-Streptomycin (100 μg/ml) under 5% CO2 at 37° C. For experiments, cells were split into 96-well black, clear bottom, poly-D-lysine coated microtiter plates (Nunc, Cat. #152037) at a density of 20,000 cells/well in DMEM containing 10% fetal bovine serum and Penicillin (100 units/ml), Streptomycin (100 μg/ml). RGS4 expression was induced by supplementing the medium with 1 μg/mL doxycycline for 24-48 hours before experimentation. Cells were loaded with Fluo-4 No Wash dye in buffer for 30 minutes at 37° C. Compounds and/or carbachol were added to the wells and the fluorescence intensity was measured using a FlexStation (Molecular Devices, Sunnyvale, Calif.) plate reader. Data analysis was performed by calculating the area under the curve or maximal fluorescence intensity from a 120 second kinetic measurement.
as §5, with “Calcium signaling transients: A” for “A”, “units/ml)-Streptomycin” for “units/ml), Streptomycin”

Tail suspension test = type: in vivo, mice
Excerpt: This Example describes antidepressant activity of compounds of embodiments of the present invention. Antidepressant-like effects of CCG 203769: The tail suspension test in mice is a model of learned helplessness and is used as an assay for antidepressant medications. In this test antidepressant drugs (such as SSRIs) decrease the time the animals spend immobile by increasing escape-like behaviors.

[1] = test system: muscarinic class of GPCRs; test: NIMH Psychoactive Drug Screening Program receptor panel
Procedure: (§6) Furthermore, the compound was tested against a panel of receptors via collaboration with the NIMH Psycoactive Drug Screening Program.

αAR = test: as above
Procedure: as §6

RGS4 [2] = target: T1, RGS4 (Homo sapiens (Human), UniProt P49798); test: Single turnover GTPase (GAP) assay, RGS4; type: biochemical
Procedure: as §1, §2
Target sequence in this assay (P49798 52-205, species assumed): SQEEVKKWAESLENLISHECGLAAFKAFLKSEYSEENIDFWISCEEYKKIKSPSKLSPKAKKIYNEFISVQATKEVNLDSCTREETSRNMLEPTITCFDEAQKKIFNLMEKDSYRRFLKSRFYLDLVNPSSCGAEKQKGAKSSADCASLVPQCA
Compounds were tested for the ability to inhibit the RGS4 and RGS8-stimulated increase in GTP hydrolysis by Gα0 as previously described (Roman, D. L., et al., Mol Pharmacol, 2007. 71(1): p. 169-75; Roof, R. A., et al., Chem Biol Drug Des, 2006. 67(4): p. 266-74).
as §3

RGS19 = RGS19 (Homo sapiens (Human), UniProt P49795); test: FCPIA: Gαo binding to RGS19; settings: Table 7
RGS19, sequence (P49795 whole entry, species assumed): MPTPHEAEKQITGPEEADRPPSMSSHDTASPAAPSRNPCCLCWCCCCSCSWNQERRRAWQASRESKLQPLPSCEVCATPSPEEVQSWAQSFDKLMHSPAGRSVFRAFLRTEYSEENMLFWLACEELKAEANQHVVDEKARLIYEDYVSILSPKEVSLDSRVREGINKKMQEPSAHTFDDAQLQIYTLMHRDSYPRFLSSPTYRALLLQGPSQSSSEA
Procedure: (§7) FCPIA Dose Response and Reversibility Experiments:
FCPIA was performed as previously described using chemically biotinylated RGS proteins and AlexaFluor-532 labeled Gα0. (Roman et al., J Biomol Screen, 2009; Blazer, L. L., et al., Mol Pharmacol).
RGS/Gα binding studies: The binding of biotinylated RGS proteins to fluorescently labeled Gαo was measured by Flow Cytometry Protein Interaction Assay (FCPIA) method previously described (Roman et al., (2009) J Biomol Screen.; Blazer et al., (2010) Curr Protoc Cytom Chapter 13, Unit 13 11 11-15; Roman et al., (2007) Mol Pharmacol 71, 169-175) as were the measures of compound reversibility.

RGS4 [3] = test: FCPIA: Gαo binding to RGS4
Excerpt: as §7

[4] = Heart rate and blood pressure in freely-moving rats; type: in vivo
Excerpt: The muscarinic agonist carbachol can induce a transient bradycardic effect by activating M2 receptors in the SAN.

RGS4 [5] = target: T1, RGS4; test: Carbachol Ca2+ mobilization, M3 HEK-293 cells with doxycycline-induced RGS4; type: cell-based
Procedure: as §4
as §5, with “RGS4 expression was induced by supplementing the medium with 1 μg/mL doxycycline for 24-48 hours before experimentation. Cells were loaded with Fluo-4 No Wash dye in buffer for 30 minutes at 37° C.” left out
Target sequence in this assay (P49798 whole entry): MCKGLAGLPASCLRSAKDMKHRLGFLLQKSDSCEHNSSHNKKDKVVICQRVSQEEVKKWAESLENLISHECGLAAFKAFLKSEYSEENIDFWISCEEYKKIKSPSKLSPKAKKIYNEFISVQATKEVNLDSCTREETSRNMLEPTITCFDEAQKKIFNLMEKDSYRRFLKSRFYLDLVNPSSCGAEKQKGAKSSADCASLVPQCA
Calcium signaling transients: A stable cell line was developed based upon the HEK-293 Flp-In TREx cell line (Invitrogen, Carlsbad, Calif.) that stably express the muscarinic M3 receptor and have human RGS4 expression under doxycycline control. […] Compounds and/or carbachol were added to the wells and the fluorescence intensity was measured using a FlexStation (Molecular Devices, Sunnyvale, Calif.) plate reader. […]

RGS4 [6] = target: T1, RGS4; test: Steady-state GAP assay (malachite green); type: biochemical
Procedure: Steady-state GAP Assay: Steady-state hydrolysis of unlabled GTP was measured using malachite green in a receptor-independent assay utilizing a mutant Gαi1 (R178M, A326S) (Zielinski et al., (2009) J Biomol Screen 14, 1195-1206). These mutations facilitate the release of GDP from the enzyme making the GTP hydrolysis step rate-limiting (Lielinski et al., supra). […] The reaction is allowed to proceed for 2 hours at room temperature and then quenched with an H2SO4/malachite green dye solution. Immediately after addition of malachite green, sodium citrate was added as a colorimetric stablizer. Released inorganic phosphate was measured as an increase in absorbance (Abs630) from the complex of phosphate with malachite green (Chang, et al., 2008). Background control samples lacking Gα or RGS were used to determine the rate of non-enzymatic GTP hydrolysis.
Target sequence in this assay (P49798 whole entry, species assumed): as the sequence (P49798 whole entry) above

Gα0, sequence (P09471 whole entry): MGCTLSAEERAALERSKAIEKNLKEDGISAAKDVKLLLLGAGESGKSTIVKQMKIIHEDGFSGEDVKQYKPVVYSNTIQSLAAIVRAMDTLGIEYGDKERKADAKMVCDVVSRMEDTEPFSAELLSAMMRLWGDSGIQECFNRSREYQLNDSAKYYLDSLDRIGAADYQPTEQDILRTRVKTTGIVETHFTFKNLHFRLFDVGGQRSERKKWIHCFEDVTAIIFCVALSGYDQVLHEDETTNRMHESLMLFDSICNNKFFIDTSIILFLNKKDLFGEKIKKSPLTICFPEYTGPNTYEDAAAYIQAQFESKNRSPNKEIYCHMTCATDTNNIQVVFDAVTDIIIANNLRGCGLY

With CCCCn1c(=O)sn(CC)c1=O [CCG-203769, 2-ethyl-4-butyl-1,2,4-thiadiazolidine-3,5-dione] the “basal GTPase activity of the G protein” value (Gα0) was “without inhibiting the basal GTPase activity”, the “concentration above which carbachol Ca2+ transient is inhibited” value (M3 muscarinic receptor) was greater than 3 µM and the “effect on carbachol-induced Ca2+ response (RGS-independent)” value (M3 muscarinic receptor) was “without affecting M3-mediated calcium signal; also recorded: does not directly affect the carbachol stimulation”. For the same compound, the “effect on carbachol-induced Ca2+ response (RGS-independent)” value (M3 muscarinic receptor; listed as 11b) was “no effect”, the “effect on immobility in RGS4 knockout mice” value (Tail suspension test; 10 mg/kg) was “lost” and the immobility time (Tail suspension test; IP, significant effect at 10 mg/kg) was “decreases their immobility time in a dose-dependent manner”. The “effect upon muscarinic class of GPCRs” value [1] was “little to no observable effect”, the “effect on αAR” value (αAR) was “able to inhibit” and the “inhibition of GAP activity of RGS4” value (RGS4 [2]) was “potently inhibits the functional effect of RGS4”. For the same compound, the IC50 (RGS19) was 0.14 µM, the “reversibility of RGS4 inhibition after washing” value (RGS4 [3]; 100 μM CCG-50014 or 500 nM CCG-203769, beads washed) was “irreversible” and the IC50 (RGS4 [3]; FCPIA, listed as 11b, read-out: IC50 against RGS4) was 14.4 nM. The “RGS4 Hill Slope” value (RGS4 [3]; Table 3) was −0.71, the “blood pressure, carbachol plus compound” value ([4]; 10 mg/kg IV + carbachol 0.1 mg/kg IP) was “does not reach statistical significance” and the “bradycardic effect of carbachol after compound” value ([4]; 10 mg/kg IV before carbachol 0.1 mg/kg IP) was “significantly potentiated”. For the same compound, the “effect upon blood pressure, compound alone” value ([4]; 10 mg/kg, IV) was “no significant effect”, the “effect upon heart rate, compound alone” value ([4]; 10 mg/kg, IV) was “no significant effect” and the “lowest concentration with enhanced Ca2+ signaling” value (RGS4 [5]) was 1 µM. The “reversal of RGS4-mediated suppression of carbachol Ca2+ response” value (RGS4 [5]; 15 min pretreatment, 1 and 3 μM) was “partially rescued; also recorded: partially reverse” and the “inhibition of RGS4 effect in steady-state GTPase assay” value (RGS4 [6]) was “potently inhibits the functional effect of RGS4”.

— patent US8865750B2, “Small molecule inhibitors of RGS proteins” (The Regents of The University of Michigan, priority 2011, dated 2014)
